We go through 95 molecules from PubChem BioAssay AID463229 (Broad Institute, 2010).

Active and inactive are the calls of the source.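 The calls were made as follows: active = compounds raising the signal whose fitted half-maximal concentration is at or below their top tested dose (cut at about 25 µM in these data); inconclusive = flat fit at 30 to 70% activity, or a poor fit; inactive = the rest.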 A value given as a limit tells only on which side of the number the result lay.

This test has as its system INS-1E rat beta cells, no cytokines, CellTiter-Glo ATP, 48 h. As to the kind of experiment: cytokine-free beta-cell viability effect – INS-1E rat cells, ATP luminescence, cherry pick, counter-screen for beta-cell apoptosis protection project, dose response (AID 463229). For orientation: Counterscreens check selectivity or assay interference.
Broadly, the AC50 is the concentration giving half of the maximal activity seen. As for `CC(C)=CCc1cc2c(=O)c3c(O)c4c(cc3oc2c(O)c1O)OC(C)C4(C)C` (stereo not given), the AC50 was 7.43 µM.
Under `COc1ccc(C(=O)c2c(C(F)(F)F)oc3c2C(=O)c2ccccc2C3=O)cc1` stands 6.74 µM; under `COc1ccc2nc(Nc3nc(CSc4nc5ccccc5[nH]4)cc(=O)[nH]3)nc(C)c2c1`, 7.05 µM.
Turning to `COc1ccc(-c2c[n+]3c4n2CCCCC4=C(c2ccc(Br)cc2)C3)cc1`, the AC50 is 3.14 µM.
As for `Cc1nnc(N/N=C/c2cc([N+](=O)[O-])c(N3CCC(C)CC3)cc2N2CCC(C)CC2)n1N`, the AC50 is 2.54 µM.
Then `COc1ccc2cc(C(=O)N/N=C/c3sc4ccccc4c3O)ccc2c1`, with 7.3 µM; and `CCN(Cc1ccccc1)C(c1cccs1)c1nnnn1C1CCCCC1` (stereo not given), with 13.4 µM; and `COc1cccc(/C=N/Nc2nc(Nc3ccccc3)nc(-n3nc(C)cc3C)n2)c1O`, with 12.3 µM.
Turning to `CCOc1ccc(-c2c[n+]3c(n2-c2ccccc2)CCCCC3)cc1`, the AC50 is 0.982 µM.
Then `COc1cc([N+](=O)[O-])cc(/C=N/NC(=O)c2cc(-c3ccccc3)nc3ccccc23)c1O`, with 9.5 µM; and `CCCCn1c(NS(=O)(=O)c2ccccc2)c(S(=O)(=O)c2ccc(C)cc2)c2nc3ccccc3nc21`, with 22.1 µM; and `CCC1=NN(C(=O)c2cccc(Br)c2)C(O)(c2ccc(Br)cc2)C1` (stereo not given), with 9.79 µM.
Under `CCOc1ccc(Nc2c3ccccc3nc3ccccc23)cc1` stands 7.36 µM.
Under `CCOC(=O)N1CCN(Cc2cc(Cl)c3cccnc3c2O)CC1` stands 13.2 µM.
`Cc1nc2ccccc2nc1N/N=C/c1ccc(O)cc1O`: the half-maximal activity concentration (AC50) is 3.6 µM.
Consider `C=C(C)C(=O)O[C@H]1C/C(C)=C\C(=O)/C=C(\C)[C@H](O)[C@@H]2OC(=O)C(=C)[C@@H]21`, for which the half-maximal activity concentration (AC50) is 14.5 µM.
Then `COc1ccc(Cn2c(-c3ccc(C)cc3)c[n+]3ccccc23)cc1`, with 5.23 µM; and `Cc1[nH]c2ccccc2c1CN1CCN(c2ccccn2)CC1`, with 5.1 µM; and `Cc1ccc(-c2c(C#N)c(N)n3c(nc4ccccc43)c2C#N)cc1`, with 4.1 µM.
Under `COC(=O)c1ccc(NC(=O)c2cccnc2)cc1` stands 7.58 µM.
Under `Cc1nc(NCCc2ccc(S(N)(=O)=O)cc2)c2c(C)c(C)sc2n1` stands 6.2 µM; under `C=C[C@H](Cc1ccccc1)N(Cc1ccccc1)S(=O)(=O)N(Cc1ccccc1)[C@H](C=C)Cc1ccccc1`, 4.79 µM; under `CCc1c(C2(O)CCCCC2)[nH]c2cc(C(F)(F)F)ccc12`, 11 µM.
Take `CNC[C@@H](Cc1ccccc1)NC[C@@H](CC1CCCCC1)NCCCc1ccccc1`: the AC50 was 7.41 µM.
For `CC1=C(C#N)C(C(F)(F)F)(C(F)(F)F)N=C(c2ccco2)N1`, the AC50 was 12.8 µM.
Under `COc1ccc(C(=O)N2CCN(c3ccc([N+](=O)[O-])c(NCCc4ccc(OC)c(OC)c4)c3)CC2)cc1` stands 3.46 µM; under `CN(CC1CCCO1)S(=O)(=O)c1ccc(C(=O)Nc2nc(-c3ccccn3)cs2)cc1` (stereo not given), 10.4 µM; under `Cc1cccc2nc(CSc3nc4[nH]ncc4c(=O)n3-c3cccc(Cl)c3)cc(=O)n12`, 7.35 µM.
Then `Cc1ccc2c(c1)S/C(=C/c1ccc[n+](C)c1)N2CCO`, with 3.24 µM.
On to `CCOc1ccc(S(=O)(=O)N2CCCCC2)cc1NC(=O)CN1CCCC1c1cccs1` (stereo not given), for which the concentration at half-maximal activity (AC50) was 5.24 µM.
Then `NC(N)=N/N=C/c1ccc(N(c2ccccc2)c2ccccc2)cc1`, with 7.36 µM; and `Cc1ccc(C(=O)NC(=S)/C=C2\N(C)c3ccccc3C2(C)C)cc1`, with 4.23 µM; and `COc1ccc(Cc2nc(-c3ccc(NC(=O)c4cccnc4)cc3)no2)cc1`, with 0.286 µM.
Then `Cc1ccnc(NC(=O)c2ccc([N+](=O)[O-])s2)c1`, with 8.41 µM.
Then `O=C(OCn1ncc(Br)c(Br)c1=O)c1ccc(F)cc1`, with 5.09 µM; and `Oc1c(CN2CCN(c3ccc(F)cc3)CC2)cc(Cl)c2cccnc12`, with 4.27 µM.
For the molecule `CCOc1cc(CNCCc2ccc(S(N)(=O)=O)cc2)ccc1OCc1ccc(Cl)cc1`, the AC50 is 7.84 µM.
Then `O=C(CN1CC[n+]2c(-c3cccs3)csc21)c1ccc(-c2ccccc2)cc1`, with 2.34 µM.
Under `Oc1c(Cl)cc(Cl)cc1/C=N/Nc1ncc(Br)cn1` stands 3.94 µM; under `Oc1ccc(CCNc2ncnc3ccc(Cl)cc23)cc1`, 5.59 µM; under `C/C(=N\NC(=O)c1ccc(NS(=O)(=O)c2cccs2)cc1)c1ccccn1`, 13.3 µM.
Then `COc1cccc(/C=N/Nc2cc(C)nc(-c3ccccc3O)n2)c1O`, with 15.1 µM; and `COc1ccc(-c2sc3ccccc3c2-c2ccc(OCCN(C)C)cc2)cc1`, with 7.12 µM.
`O=C(Nc1ccc(Cl)cc1)Nc1ccc(Cl)c(Cl)c1`: the AC50 is 6.98 µM.
Under `CC(C)OCCCNc1ncnc2c1[nH]c1ccc(F)cc12` stands 2.46 µM; under `CCN1CCN(Cc2ccc(NC(=O)c3cc(NC(=O)C(=O)c4c[nH]c5ccccc45)cc(OC)c3)cc2C(F)(F)F)CC1`, 7.12 µM.
In the case of `Cc1nnc(N/N=C/c2ccccn2)[nH]c1=O`, the AC50 is 5.46 µM.
Then `Cc1cc(N2CCN(c3nc4ccccc4s3)CC2)n2ncnc2n1`, with 7.32 µM.
Under `O=C1/C(=N\S(=O)(=O)c2cccs2)C([n+]2cccc(Cc3ccccc3)c2)=C([O-])c2ccccc21` stands 7.28 µM; under `O=C(NCc1cccnc1)/C(=C\c1ccc(-c2ccc(Cl)c(Cl)c2)o1)S(=O)(=O)c1ccccc1`, 4.62 µM; under `CCOC(=O)N1CCN(S(=O)(=O)c2ccc(C(=O)NNc3nc4cc(C)cc(C)c4s3)cc2)CC1`, 6.01 µM.
Then `CCCC(C)C(=O)Nc1nc(C)c(-c2csc(Nc3ccc(Cl)cc3)n2)s1` (stereo not given), with 3.71 µM; and `CCN(C1CCCCC1)S(=O)(=O)c1ccc(S(=O)(=O)NCc2ccncc2)cc1`, with 6.3 µM.
For `Cc1cc(C(C)(C)C)cc(C)c1C[n+]1ccc2ccccc2c1`, the AC50 is 1.74 µM.
Turning to `CC1(C)CC(=O)C2=C(C1)OC1=C(C(=O)CC(C)(C)C1)C2c1ccc(O)cc1O`, the AC50 is 7.31 µM.
Then `CC(=O)N(C)C1=C(N2CCOCC2)C(=O)c2ccccc2C1=O`, with 7.91 µM; and `Oc1ccccc1/C=N/Nc1nccnc1Cl`, with 3.97 µM; and `CC1=NNC(=O)/C1=C\c1cn(-c2ccccc2)nc1-c1ccccc1`, with 7.57 µM.
For `COc1ccc(Nc2ccc3c(c2)=NC2(CCCCC2)[N+]=3[O-])cc1`, the AC50 was 7.8 µM.
For the molecule `O=[N+]([O-])c1ccc(S(=O)(=O)c2ccccc2)nc1`, the AC50 was 10.6 µM.
Under `Cc1oc2c(c1C(=O)N1CCC(C)CC1)C(=O)c1ccccc1C2=O` stands 10.8 µM; under `COc1cccc(/C=N/Nc2nc3ccccc3[nH]2)c1O`, 8.89 µM; under `CCCOc1ccc(Cc2c(Cl)nc(SC)nc2NC)cc1`, 6.05 µM.
Then `Cc1ccc(C(C)C)c(OCc2nn(CC(=O)c3ccc(OC(F)F)cc3)c3[n+]2CCCCC3)c1`, with 4.43 µM.
Then `CCCC(=O)NC(c1ccccc1OC)c1ccc2cccnc2c1O` (stereo not given), with 3.28 µM.
Consider `Cc1cc(Br)cc(/C=N/NC(=O)c2ccc3c(c2)OCO3)c1O`, for which the AC50 was 7.43 µM.
Turning to `CCN(CC)S(=O)(=O)c1ccc(N/N=C/c2cc(OC)ccc2O)nc1`, the concentration at half-maximal activity (AC50) was 4.24 µM.
Under `O=C(Nc1nc2ccc(F)cc2s1)C1CCN(S(=O)(=O)c2cc([N+](=O)[O-])ccc2Cl)CC1` stands 7.01 µM.
Under `Cc1ccc(Nc2c(-c3ccccn3)nc3cccc(C)n23)cc1` stands 6.47 µM; under `CCN(CC)S(=O)(=O)c1ccc(NC(=O)Nc2cccc(C(F)(F)F)c2)cc1`, 8.02 µM; under `CC(C)C[C@H]1CN=C(Nc2ccccc2)N1CCc1ccc(F)cc1`, > 26 µM (inactive).
Under `C(=N\Nc1nncc2ccccc12)/c1ccccn1` stands 4.47 µM; under `COc1ccc(/C=N/Nc2cc(C)nc(-n3nc(C)cc3C)n2)c(OC)c1`, 18.4 µM; under `Cn1c(=O)[nH]c(=O)c2c1nc([N+](=O)[O-])n2Cc1ccccc1`, 6.67 µM.
Consider `C/C(=N\NC(=O)c1c(C)nc2ccccn12)c1ccc(O)cc1O`, for which the AC50 is 19.5 µM.
Under `CCOC(=O)c1cnc(-n2nc(C)cc2C)nc1NCc1ccccc1` stands 7.8 µM; under `COc1ccc(C(NC(C)=O)c2cc(Cl)c3cccnc3c2O)cc1OC` (stereo not given), 7.62 µM.
Then `Cc1cc(-n2c(SCC(=O)Nc3ccc(F)c(F)c3)nc3n[nH]c(C)c3c2=N)ccc1Cl`, with 5.84 µM.
Under `CC(C)N=c1cc2n(-c3ccc(Cl)cc3)c3ccccc3nc-2cc1Nc1ccc(Cl)cc1` stands 6.69 µM; under `Cc1ccc(-n2c(Cl)c(Cl)nc(Cl)c2=O)cc1`, 6.66 µM.
Consider `Oc1ccc2ccccc2c1N=Nc1ccccn1`, for which the AC50 is 4.14 µM.
Under `O=c1nccc(N/N=C/c2ccccc2O)[nH]1` stands 23.3 µM; under `O=C(NC(NC(=S)Nc1ccc(Cl)cc1Cl)C(Cl)(Cl)Cl)c1cccc([N+](=O)[O-])c1` (stereo not given), 7.31 µM; under `CC(CC(=O)N1CCN(c2cccc(Cl)c2)CC1)S(=O)(=O)c1ccc2c(c1)NC(=O)CO2` (stereo not given), 7.1 µM.
Then `C[n+]1c2n(c3ccccc31)N=C(c1ccc(-c3ccccc3)cc1)CS2`, with 1.74 µM.
Under `CCS(=O)(=O)c1ccc(OC)c(N=Nc2ccc(O)c3ncccc23)c1` stands 9.84 µM; under `Cn1cc(C(=O)N/N=C/c2c(O)ccc3ccccc23)ccc1=O`, 2.5 µM; under `COC(=O)c1ccc2c(=O)n(-c3ccccc3)c(SCN3C(=O)c4ccccc4C3=O)nc2c1`, 3.86 µM.
For `O=C(C1CCC1)N1CCc2cc(S(=O)(=O)Nc3ccc4c(c3)OCCO4)ccc21`, the AC50 was 7.92 µM.
Then `O=C(N/N=C/c1c(O)ccc2ccccc12)c1cccnc1`, with 4.07 µM.
Under `COc1ccc(CC2(CO)CCN(CC3=Cc4cc(Cl)ccc4OC3)CC2)cc1` stands 4.18 µM.
Under `CCN(CC)C(=O)c1ccc(S(=O)(=O)N2CCC(c3nc4ccccc4s3)CC2)cc1` stands 7.7 µM.
For the molecule `COc1cccc(C(=O)N/N=C(/c2ccccc2)c2ccccn2)c1`, the AC50 was 3.73 µM.
For the molecule `COc1ccc(C)cc1Nc1n[n+](-c2ccccc2)c(-c2ccc(OC)c(OC)c2OC)s1`, the AC50 was 14.5 µM.
Then `O=C(NC(c1cccnc1)C(F)(F)F)c1cc(COc2ccc3c(c2)CCCC3)on1` (stereo not given), with 4.62 µM.
